Experimental findings from patent publication EP0880540B1, “17-BETA-CYCLOPROPYL(AMINO/OXY) 4-AZA STEROIDS AS ACTIVE INHIBITORS OF TESTOSTERONE 5-ALPHA-REDUCTASE AND C17-20-LYASE” (Aventis Pharmaceuticals Inc., priority 1996, dated 1997) are described below.

This experiment has as its target T1, nude mouse testicular C17,20 lyase (Mus musculus, UniProt P27786).
T1 construct: from tissue; host or cells: testes of male athymic nude mice (Harlan Laboratories), 10,000 x g supernatant of homogenate
T1 sequence (P27786 1-507): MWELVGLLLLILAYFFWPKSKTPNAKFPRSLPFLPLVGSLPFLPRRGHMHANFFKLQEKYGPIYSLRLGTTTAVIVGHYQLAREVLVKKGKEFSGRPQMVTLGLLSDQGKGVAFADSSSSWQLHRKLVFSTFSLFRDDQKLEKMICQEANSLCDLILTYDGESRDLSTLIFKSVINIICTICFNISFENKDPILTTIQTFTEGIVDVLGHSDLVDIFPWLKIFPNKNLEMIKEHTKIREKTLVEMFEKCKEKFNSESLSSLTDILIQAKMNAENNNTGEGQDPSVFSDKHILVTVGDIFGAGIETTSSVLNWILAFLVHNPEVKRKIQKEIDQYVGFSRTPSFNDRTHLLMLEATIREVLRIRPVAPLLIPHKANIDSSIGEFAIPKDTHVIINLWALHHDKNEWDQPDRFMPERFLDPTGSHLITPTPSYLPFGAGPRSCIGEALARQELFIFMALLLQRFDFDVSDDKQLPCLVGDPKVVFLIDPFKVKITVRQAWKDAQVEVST
The experiment is described as follows: Ex vivo inhibition of C17,20 lyase in nude mouse testes after oral dosing. Also noted: species or system male athymic nude mice. Particulars: 4 hours after oral dosing. The method, then: Ex vivo inhibition of C17,20 lyase: MDL 103,432 was tested for ex vivo inhibition of rat and nude mouse testes lyase. Male Copenhagen rats and male athymic nude mice obtained from Harlan Laboratories, Indianapolis, IN, were divided into groups of 5 to 6 based on weight. Average weight was 100-140 g each for rats and 18-35 g each for the mice. Prior to oral dosing, animals were fasted overnight. Test compound was prepared by micronization in a lecithin vehicle using a glass Teflon® pestle-type homogenizer. The compound was brought to volume using lecithin so as to administer 0.5 mL per 100 g animal. Rats and nude mice were given vehicle only (controls) or vehicle plus test compounds peros. Rats were also given the compound in lecithin or lecithin alone subcutaneously. Each group consisted of 5-6 animals. At a specified time after dosing, the animals were anesthetized with CO2 gas, sacrificed by cervical dislocation, testes were excised, capsules were removed, and the tissue was weighed. […] Assays were terminated, extracted and analyzed as described above except that carrier steroids were 17α-hydroxyprogesterone, androst-4-ene-dione, and testosterone. […] Activity of test compound was expressed as percent inhibition relative to the control and was the mean of each group of treated animals.

On to `CC12CCC3C(CC[C@H]4NC(=O)CCC34C)C1CC[C@@H]2OC1CC1` (stereo partly drawn) [MDL 103,432, 17β-Cyclopropyloxy-4-aza-5α-androstan-3-one], for which, for the setting “30 mg/kg”, at 30 mg/kg the inhibition was 88%. Also, where the note is “100 mg/kg”, the inhibition at 100 mg/kg is 96%.

The inhibition is the share of the control response that was lost under treatment.
